Test results reported in ChEMBL document CHEMBL1201862, “PubChem BioAssay data set” (2004).
Active and inactive are the calls of the source.

Key:
[1] = biological target: Peroxisome proliferator-activated receptor gamma/Nuclear receptor coactivator 2 (Homo sapiens, UniProt P37231); assay type: functional;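 further: agonist potency for raising coactivator recruitment to the receptor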
[2] = biological target: Peroxisome proliferator-activated receptor gamma/Nuclear receptor coactivator 1 (Homo sapiens, UniProt P37231); assay type: functional;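 further: agonist potency as compounds enhance coactivator SRC-1 recruitment to PPARgamma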
[3] = biological target: Peroxisome proliferator-activated receptor gamma/Nuclear receptor coactivator 3 (Homo sapiens, UniProt P37231); assay type: functional;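 further: agonist potency for raising coactivator recruitment to the receptor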
[4] = biological target: Large T antigen (Simian virus 40, UniProt P03070); assay type: functional, Betapolyomavirus macacae;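 further: Confirmatory-stage PubChem screen for compounds that inhibit SV40 T antigen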
[5] = biological target: Induced myeloid leukemia cell differentiation protein Mcl-1 (Homo sapiens, UniProt Q07820); assay type: functional
[6] = biological target: T1, Mannose-6-phosphate isomerase (Homo sapiens, UniProt P34949); test: MPI inhibition at elevated mannose 6-phosphate – biochemical, fluorescence intensity, high mannose 6-phosphate, primary screen (AID 1220)
T1 sequence (P34949 whole entry): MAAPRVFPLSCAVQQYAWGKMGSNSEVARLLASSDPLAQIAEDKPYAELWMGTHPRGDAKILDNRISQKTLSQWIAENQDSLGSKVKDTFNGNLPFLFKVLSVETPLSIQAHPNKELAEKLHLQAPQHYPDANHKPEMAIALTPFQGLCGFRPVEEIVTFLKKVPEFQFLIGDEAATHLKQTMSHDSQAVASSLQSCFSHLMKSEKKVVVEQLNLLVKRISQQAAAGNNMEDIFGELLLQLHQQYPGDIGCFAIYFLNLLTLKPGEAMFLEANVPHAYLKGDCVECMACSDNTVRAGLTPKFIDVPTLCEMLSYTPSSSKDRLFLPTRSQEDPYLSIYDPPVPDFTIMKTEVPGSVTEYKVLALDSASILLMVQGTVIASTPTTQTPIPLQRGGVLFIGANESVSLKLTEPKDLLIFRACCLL

[7] = system: HEK293; test: inhibition of NOD1-driven NF-kB reporter – cell-based, luminescence, uHTS, primary screen (AID 1578); assay type: functional; settings: Homo sapiens
[8] = system: HeLa; test: Cytotoxicity counterscreen assay for transcriptional activators of heat shock protein 70 (Hsp70). [Related pubchem assays: 1203, 1252 ]; assay type: functional; settings: Homo sapiens;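 further: cells exposed to compound for 16 hours before readout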
[9] = system: HEK293; test: cells; assay type: functional, cell-based; settings: Homo sapiens
[10] = biological target: T2, Heat shock factor protein 1 (Mus musculus, UniProt P38532); test: decrease of HSF1-responsive luciferase luminescence – cell-based, NIH3T3, dose retest, confirmation (AID 2382); assay type: functional;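 further: NIH3T3 fibroblasts with HSF1-driven luciferase reporter stressed by proteasome inhibitor MG132; luminescence from HSF1-driven luciferase expression after 8 hours of MG132 stress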
T2 sequence (P38532 whole entry): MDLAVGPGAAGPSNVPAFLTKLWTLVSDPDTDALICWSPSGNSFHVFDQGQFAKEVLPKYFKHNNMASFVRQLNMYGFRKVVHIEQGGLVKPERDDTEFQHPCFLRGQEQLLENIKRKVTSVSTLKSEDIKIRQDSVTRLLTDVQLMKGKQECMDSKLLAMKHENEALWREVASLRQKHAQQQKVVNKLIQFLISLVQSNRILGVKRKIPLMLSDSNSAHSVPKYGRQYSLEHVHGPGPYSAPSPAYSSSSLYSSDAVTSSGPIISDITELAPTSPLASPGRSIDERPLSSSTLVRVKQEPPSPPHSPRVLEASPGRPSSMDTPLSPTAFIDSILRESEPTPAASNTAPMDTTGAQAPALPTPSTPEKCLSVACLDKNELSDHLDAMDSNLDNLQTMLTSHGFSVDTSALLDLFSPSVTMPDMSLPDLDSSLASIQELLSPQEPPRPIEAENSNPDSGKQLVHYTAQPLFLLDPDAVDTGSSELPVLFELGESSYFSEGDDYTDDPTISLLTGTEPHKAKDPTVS

[11] = system: HEK293; test: cells; assay type: functional, cell-based; settings: Homo sapiens; remark: listed apart in the source
[12] = system: HEK293; test: NOD2 signaling inhibitors in MDP-stimulated cells, cell-based, uHTS, luminescence (AID 2001); assay type: functional; settings: Homo sapiens
[13] = Trypanosoma cruzi growth suppression in host cells – NIH3T3 host cells, beta-gal luminescence, confirmation (AID 2044); assay type: functional, cell-based;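 further: intracellular parasites grown in NIH/3T3 mouse fibroblasts as host cells; luminescent beta-galactosidase reporter signal from transgenic T. cruzi replicating inside host cells; inhibitors lower the luminescence signal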
[14] = viability of PTEN-deleted HCT116 cells – cell-based, HCT116 PTEN knockout, dose response (AID 1047); assay type: functional;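 further: HCT116 colon tumor cells with PTEN knocked out; cells exposed to compound for 60 hours before readout; potency for loss of cell viability measured by luminescence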
[15] = NIH3T3 cell viability loss – ATP luminescence, mouse fibroblasts, counter-screen, dose response (AID 2010); assay type: functional, cell-based;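 further: cells exposed to compound for about 90 hours before reading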
[16] = viability of HCT116 lacking mutant beta-catenin – cell-based, human colon tumor, dose response (AID 1045); assay type: functional;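 further: HCT116 colon tumor cells with beta catenin knocked out; cells exposed to compound for 60 hours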
[17] = biological target: Sphingosine 1-phosphate receptor 4 (Homo sapiens, UniProt O95977); test: Fluorescence dose response cell-based high throughput screening assay for antagonists of the Sphingosine 1-Phosphate Receptor 4 (S1P4). [Related pubchem assays: 1524 (Confirmation in triplicates.), 1510 (Primary screen.)]; assay type: functional
[18] = biological target: Sphingosine 1-phosphate receptor 1 (Homo sapiens, UniProt P21453); assay type: functional;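 further: Tango beta-arrestin reporter U2OS cells stimulated with S1P near its EC80; inhibitor potency meaning antagonism of receptor activation by the natural agonist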
[19] = system: INS1; test: INS-1E survival protection against cytokine death – cell-based, luminescence, retest, dose response (AID 449756); assay type: functional; settings: Rattus norvegicus;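 further: cell death triggered by IL-1 beta plus TNF-alpha plus IFN-gamma mixture; protective hits raise ATP signal compared with cytokine alone wells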
[20] = biological target: Beta-2 adrenergic receptor (Homo sapiens, UniProt P07550); test: ADRB2 activation measured by internalization – cell-based, FAP fluorogen, flow cytometry, cherry pick 1, dose response (AID 588763); assay type: functional
[21] = reduction of Shn3 3'UTR-driven luciferase in osteoblasts – cell-based, Clone20 osteoblasts, firefly luciferase, cherry-picked, dose response (AID 624132); assay type: functional;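 further: firefly luciferase luminescence from reporter carrying the Shn3 3'UTR in osteoblasts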
[22] = loss of viability in HepG2 cells – cell-based, CellTiter-Glo, cherry-picked, cytotoxicity control for Shn3 inhibitor project, dose response (AID 624134); assay type: functional
[23] = non-specific 3'UTR reporter inhibition in Clone20-Shn3RL – cell-based, Renilla luciferase, cherry-picked, counter-screen for Shn3 inhibitor project, dose response (AID 624133); assay type: functional
[24] = biological target: T3, RNA-binding protein pos-1 (Caenorhabditis elegans, UniProt G5EF15); test: disruptors of C. elegans POS-1 RNA interaction – biochemical, fluorescence polarization, dose response (AID 1964);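 further: purified POS-1 fused to maltose binding protein made in E. coli; potency of compounds blocking POS-1 binding to fluorescent RNA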
T3 sequence (G5EF15 whole entry): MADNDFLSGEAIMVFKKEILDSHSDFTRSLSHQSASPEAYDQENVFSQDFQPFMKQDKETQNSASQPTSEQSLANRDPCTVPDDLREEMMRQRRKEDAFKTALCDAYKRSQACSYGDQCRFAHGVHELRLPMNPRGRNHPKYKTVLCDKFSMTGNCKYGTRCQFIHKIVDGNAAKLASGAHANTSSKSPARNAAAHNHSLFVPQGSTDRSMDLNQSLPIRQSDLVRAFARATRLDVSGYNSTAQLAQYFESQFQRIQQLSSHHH

[25] = biological target: T4, Zinc finger protein mex-5 (Caenorhabditis elegans, UniProt Q9XUB2); test: potency of MEX-5 RNA-binding blockers – biochemical, C. elegans, fluorescence polarization, dose response (AID 1960)
T4 sequence (Q9XUB2 whole entry): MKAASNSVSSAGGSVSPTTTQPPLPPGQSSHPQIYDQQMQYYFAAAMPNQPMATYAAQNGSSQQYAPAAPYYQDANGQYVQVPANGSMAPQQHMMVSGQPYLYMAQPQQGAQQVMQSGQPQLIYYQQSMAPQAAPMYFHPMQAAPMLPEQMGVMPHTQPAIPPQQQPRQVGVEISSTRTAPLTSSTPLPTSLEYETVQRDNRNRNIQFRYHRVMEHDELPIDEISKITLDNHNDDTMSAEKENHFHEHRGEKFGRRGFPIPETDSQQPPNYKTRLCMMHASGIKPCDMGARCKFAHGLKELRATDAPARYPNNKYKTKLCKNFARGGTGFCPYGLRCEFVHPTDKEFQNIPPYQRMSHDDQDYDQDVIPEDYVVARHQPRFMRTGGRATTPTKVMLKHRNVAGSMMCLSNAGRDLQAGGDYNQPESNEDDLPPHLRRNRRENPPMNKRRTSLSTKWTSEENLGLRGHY

[26] = antiviral protection against BTV-induced cell death – arbovirus, BSR cells, confirmation (AID 1250); assay type: functional;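 further: protection from viral cytopathic effect measured as cell viability by ATP luminescence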
[27] = biological target: T5, Replicative DNA helicase DnaB (Mycobacterium tuberculosis, UniProt P9WMR3); test: DnaB intein splicing inhibitors, dose response, biochemical, cell-free fluorescence (AID 449749); assay type: functional
T5 sequence (P9WMR3 whole entry): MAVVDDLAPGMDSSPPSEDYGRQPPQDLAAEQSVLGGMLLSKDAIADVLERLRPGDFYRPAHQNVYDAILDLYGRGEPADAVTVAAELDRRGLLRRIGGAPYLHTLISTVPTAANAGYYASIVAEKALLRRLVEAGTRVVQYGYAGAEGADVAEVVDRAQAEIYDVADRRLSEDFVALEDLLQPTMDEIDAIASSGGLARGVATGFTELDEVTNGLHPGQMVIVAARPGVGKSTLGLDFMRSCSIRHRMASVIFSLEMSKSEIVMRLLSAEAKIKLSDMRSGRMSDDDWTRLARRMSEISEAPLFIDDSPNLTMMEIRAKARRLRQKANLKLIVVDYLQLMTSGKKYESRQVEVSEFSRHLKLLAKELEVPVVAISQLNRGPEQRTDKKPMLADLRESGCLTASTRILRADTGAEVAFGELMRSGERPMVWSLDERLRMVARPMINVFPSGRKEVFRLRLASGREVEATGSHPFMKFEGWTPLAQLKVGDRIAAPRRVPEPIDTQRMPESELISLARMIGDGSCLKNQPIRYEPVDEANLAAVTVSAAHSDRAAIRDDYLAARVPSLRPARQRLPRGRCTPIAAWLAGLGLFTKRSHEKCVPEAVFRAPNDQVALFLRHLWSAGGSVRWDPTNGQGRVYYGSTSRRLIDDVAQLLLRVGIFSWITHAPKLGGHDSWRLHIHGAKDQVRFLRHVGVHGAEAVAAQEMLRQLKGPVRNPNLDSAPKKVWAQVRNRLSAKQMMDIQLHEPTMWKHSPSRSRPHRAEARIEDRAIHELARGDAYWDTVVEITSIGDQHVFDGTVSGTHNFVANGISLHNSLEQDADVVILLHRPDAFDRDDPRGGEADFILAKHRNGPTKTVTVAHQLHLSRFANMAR

[28] = biological target: T6, Protein RecA (Mycobacterium tuberculosis, UniProt P9WHJ3); test: Fluorescence Cell-Free Homogeneous Dose Retest to Identify Inhibitors of RecA-Intein Splicing Activity. [Related pubchem assays (depositor defined):AID2097, AID2223, AID489010, AID492950]; assay type: functional
T6 sequence (P9WHJ3 whole entry): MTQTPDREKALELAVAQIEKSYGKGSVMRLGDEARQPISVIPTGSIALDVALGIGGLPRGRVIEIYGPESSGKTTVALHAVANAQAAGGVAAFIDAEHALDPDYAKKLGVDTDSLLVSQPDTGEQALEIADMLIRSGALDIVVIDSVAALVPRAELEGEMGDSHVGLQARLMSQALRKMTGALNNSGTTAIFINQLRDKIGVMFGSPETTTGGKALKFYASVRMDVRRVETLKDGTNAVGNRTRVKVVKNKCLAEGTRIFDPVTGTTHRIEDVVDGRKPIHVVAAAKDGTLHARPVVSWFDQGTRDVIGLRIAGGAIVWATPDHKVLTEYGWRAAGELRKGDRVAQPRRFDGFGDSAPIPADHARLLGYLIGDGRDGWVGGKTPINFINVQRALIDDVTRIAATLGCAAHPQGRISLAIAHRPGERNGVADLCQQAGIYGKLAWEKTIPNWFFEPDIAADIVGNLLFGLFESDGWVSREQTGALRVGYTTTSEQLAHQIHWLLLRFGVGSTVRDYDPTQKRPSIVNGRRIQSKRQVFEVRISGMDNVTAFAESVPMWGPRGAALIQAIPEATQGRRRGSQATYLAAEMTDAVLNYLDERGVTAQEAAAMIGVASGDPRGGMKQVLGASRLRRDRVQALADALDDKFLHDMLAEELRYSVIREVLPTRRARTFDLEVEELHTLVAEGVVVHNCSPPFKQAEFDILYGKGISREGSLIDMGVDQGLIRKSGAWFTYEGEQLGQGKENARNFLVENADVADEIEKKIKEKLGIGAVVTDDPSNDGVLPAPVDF

Large T antigen, sequence (P03070 whole entry): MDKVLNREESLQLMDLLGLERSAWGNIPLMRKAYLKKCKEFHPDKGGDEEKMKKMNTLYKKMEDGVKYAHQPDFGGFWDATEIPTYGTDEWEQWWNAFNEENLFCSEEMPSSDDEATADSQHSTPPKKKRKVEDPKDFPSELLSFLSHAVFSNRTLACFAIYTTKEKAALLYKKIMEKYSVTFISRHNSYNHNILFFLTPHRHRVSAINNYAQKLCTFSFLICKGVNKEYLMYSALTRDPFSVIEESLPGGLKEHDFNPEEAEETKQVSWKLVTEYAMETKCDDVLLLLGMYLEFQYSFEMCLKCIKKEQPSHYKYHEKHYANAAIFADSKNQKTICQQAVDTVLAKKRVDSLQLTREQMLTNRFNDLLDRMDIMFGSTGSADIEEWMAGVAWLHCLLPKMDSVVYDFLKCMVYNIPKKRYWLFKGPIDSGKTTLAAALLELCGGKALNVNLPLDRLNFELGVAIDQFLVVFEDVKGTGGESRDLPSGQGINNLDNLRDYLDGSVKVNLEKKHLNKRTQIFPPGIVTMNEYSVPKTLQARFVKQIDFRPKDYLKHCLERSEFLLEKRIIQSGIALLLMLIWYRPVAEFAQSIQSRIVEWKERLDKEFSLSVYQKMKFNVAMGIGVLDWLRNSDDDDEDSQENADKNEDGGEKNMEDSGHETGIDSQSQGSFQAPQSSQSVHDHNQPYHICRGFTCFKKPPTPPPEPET
Sphingosine 1-phosphate receptor 4, sequence (O95977 whole entry): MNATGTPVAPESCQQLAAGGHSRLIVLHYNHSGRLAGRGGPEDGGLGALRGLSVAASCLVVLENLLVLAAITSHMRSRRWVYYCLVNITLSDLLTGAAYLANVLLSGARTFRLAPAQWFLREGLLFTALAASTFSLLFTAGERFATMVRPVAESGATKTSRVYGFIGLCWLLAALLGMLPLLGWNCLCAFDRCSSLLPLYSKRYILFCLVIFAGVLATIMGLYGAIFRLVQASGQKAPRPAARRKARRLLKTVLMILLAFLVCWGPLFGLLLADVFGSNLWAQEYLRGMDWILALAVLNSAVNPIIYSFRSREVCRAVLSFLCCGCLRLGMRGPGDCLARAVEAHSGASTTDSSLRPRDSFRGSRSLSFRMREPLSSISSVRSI
Sphingosine 1-phosphate receptor 1, sequence (P21453 whole entry): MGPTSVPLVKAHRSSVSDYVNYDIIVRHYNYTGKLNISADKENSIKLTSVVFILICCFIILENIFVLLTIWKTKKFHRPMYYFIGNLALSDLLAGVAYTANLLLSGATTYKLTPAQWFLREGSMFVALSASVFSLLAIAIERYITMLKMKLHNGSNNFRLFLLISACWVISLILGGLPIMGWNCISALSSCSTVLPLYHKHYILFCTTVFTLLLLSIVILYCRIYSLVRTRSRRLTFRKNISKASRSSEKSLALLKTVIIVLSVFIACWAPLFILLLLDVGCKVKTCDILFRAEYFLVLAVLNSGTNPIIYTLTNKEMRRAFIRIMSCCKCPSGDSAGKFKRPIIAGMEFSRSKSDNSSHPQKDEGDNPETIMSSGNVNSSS
Beta-2 adrenergic receptor, sequence (P07550 whole entry): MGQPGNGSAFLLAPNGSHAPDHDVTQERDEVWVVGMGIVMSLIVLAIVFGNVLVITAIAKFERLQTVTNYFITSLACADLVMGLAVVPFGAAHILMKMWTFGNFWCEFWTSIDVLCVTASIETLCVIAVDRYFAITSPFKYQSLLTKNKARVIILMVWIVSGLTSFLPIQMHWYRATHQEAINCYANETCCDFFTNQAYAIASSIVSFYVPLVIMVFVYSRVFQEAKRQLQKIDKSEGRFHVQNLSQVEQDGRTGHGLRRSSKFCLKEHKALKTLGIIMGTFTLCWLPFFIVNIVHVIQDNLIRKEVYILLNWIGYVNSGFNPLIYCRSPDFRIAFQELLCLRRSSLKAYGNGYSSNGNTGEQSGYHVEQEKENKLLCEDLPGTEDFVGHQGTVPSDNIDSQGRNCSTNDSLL
Induced myeloid leukemia cell differentiation protein Mcl-1, sequence (Q07820 whole entry): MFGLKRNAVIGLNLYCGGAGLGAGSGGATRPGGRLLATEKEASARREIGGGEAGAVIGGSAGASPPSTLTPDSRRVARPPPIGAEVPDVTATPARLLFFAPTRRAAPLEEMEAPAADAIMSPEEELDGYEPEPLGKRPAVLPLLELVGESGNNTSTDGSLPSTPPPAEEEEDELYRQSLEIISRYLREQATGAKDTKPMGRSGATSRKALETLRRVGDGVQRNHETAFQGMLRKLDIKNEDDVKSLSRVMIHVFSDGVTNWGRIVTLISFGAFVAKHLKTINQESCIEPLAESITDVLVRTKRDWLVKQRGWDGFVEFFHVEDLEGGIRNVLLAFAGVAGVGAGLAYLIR
Peroxisome proliferator-activated receptor gamma/Nuclear receptor coactivator 3, sequence (P37231 whole entry): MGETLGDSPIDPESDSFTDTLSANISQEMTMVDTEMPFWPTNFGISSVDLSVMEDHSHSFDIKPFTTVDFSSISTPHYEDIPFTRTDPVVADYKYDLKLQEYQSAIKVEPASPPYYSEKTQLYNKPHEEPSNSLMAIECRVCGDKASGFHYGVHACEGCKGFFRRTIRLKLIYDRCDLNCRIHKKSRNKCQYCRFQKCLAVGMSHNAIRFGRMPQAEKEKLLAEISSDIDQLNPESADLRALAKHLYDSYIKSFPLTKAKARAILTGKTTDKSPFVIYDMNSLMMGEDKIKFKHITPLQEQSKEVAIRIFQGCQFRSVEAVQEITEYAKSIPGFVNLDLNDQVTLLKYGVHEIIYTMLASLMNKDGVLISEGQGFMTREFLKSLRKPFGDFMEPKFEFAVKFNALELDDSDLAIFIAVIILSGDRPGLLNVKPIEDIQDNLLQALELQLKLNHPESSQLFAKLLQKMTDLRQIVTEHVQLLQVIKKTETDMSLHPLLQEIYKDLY
Peroxisome proliferator-activated receptor gamma/Nuclear receptor coactivator 3, sequence (Q9Y6Q9 whole entry, further chain): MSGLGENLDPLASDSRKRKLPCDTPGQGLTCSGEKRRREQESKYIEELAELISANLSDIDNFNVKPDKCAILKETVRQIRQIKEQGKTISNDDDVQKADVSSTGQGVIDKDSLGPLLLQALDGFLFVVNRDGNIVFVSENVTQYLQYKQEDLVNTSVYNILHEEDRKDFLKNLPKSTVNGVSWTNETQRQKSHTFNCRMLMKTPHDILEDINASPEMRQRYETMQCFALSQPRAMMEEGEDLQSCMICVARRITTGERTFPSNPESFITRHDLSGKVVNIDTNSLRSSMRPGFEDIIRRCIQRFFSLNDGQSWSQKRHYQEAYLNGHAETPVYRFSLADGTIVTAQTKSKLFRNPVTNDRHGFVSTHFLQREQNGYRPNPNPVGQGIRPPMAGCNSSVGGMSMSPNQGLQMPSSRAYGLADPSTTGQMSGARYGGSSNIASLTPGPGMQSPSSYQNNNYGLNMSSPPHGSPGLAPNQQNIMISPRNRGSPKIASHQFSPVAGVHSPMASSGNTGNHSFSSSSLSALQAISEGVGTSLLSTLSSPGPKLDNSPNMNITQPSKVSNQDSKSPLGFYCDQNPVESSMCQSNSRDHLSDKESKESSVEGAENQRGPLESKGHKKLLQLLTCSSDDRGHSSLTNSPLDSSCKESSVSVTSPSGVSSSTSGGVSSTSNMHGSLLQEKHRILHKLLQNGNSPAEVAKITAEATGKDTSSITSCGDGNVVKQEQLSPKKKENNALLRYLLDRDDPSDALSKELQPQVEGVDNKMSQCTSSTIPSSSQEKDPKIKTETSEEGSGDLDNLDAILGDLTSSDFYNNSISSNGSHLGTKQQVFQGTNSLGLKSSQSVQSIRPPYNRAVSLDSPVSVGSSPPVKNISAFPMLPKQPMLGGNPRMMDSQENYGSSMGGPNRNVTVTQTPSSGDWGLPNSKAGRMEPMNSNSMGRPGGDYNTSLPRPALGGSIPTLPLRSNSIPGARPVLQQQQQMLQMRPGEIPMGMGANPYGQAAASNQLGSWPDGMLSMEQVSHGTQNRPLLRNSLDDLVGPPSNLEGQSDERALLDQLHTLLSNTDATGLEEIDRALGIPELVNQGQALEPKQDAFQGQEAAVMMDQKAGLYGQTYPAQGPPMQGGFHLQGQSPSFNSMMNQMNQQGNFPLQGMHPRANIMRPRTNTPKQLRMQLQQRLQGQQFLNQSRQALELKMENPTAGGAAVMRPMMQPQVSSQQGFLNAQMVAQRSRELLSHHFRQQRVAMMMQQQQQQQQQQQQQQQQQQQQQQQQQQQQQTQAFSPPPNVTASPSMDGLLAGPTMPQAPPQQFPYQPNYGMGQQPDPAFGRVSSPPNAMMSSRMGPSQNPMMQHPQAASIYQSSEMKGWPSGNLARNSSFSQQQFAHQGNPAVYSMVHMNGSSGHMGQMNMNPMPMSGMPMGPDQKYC

COc1ccc(N2CCC(CNC(=O)Nc3ccccc3)C2)cc1 (stereo not drawn)
EC50 [1]: > 79.4 µM (not active)
EC50 [2]: > 79.4 µM (not active)
EC50 [3]: > 79.4 µM (not active)
IC50 [4]: 10.6 µM (active)
IC50 [5]: 2.58 µM (active)
IC50 [6]: > 50 µM (not active)

Cc1ccc(-c2nc(NC(=O)c3nn(C)cc3[N+](=O)[O-])sc2C)cc1C
EC50 [7]: 9.93 µM (active)
CC50 [8]: 2.08 µM (active)
IC50 [9]: 6.72 µM (active)
EC50 [10]: 4.28 µM (inconclusive)
IC50 [11]: 17.7 µM (active)
IC50 [12]: 3.82 µM (active)
EC50 [13]: 2.7 µM (active)
EC50 [14]: 0.224 µM (active)
EC50 [15]: 4.71 µM (active)
EC50 [16]: 0.207 µM (active)
IC50 [17]: 1 µM (active)
IC50 [18]: 18.1 µM (not active)
AC50 [19]: 3.62 µM (active)
EC50 [20]: 64.1 µM (inactive)
AC50 [21]: 2.25 µM (active)
AC50 [22]: 18.2 µM (active)
AC50 [23]: 6.06 µM (active)

O=C1NC(=O)N(Cc2ccc(F)cc2)C(=O)/C1=C/NNC(=O)c1ccccc1O
EC50 [24]: 10.1 µM (active)
EC50 [25]: 9.33 µM (active)
IC50 [26]: > 100 µM (active)
AC50 [27]: 6.55 µM (active)
EC50 [28]: 21.9 µM (active)
